Laboratory results from patent publication US7037936B2, “Compounds useful for the treatment of cancer, compositions thereof and methods therewith” (Signal Pharmaceuticals, LLC., priority 2002, dated 2006).
Counter-ions that a name gives are not always drawn.

What was measured:
Format in all cases: cell-based
[1] = tested on: Hela (cervix adenocarcinoma); test: Induction of cell (programmed) death in Hela cells; details: Hela (cervix adenocarcinoma) cell line
[2] = tested on: MDA-MB-435 (breast cancer); test: Induction of cell (programmed) death in MDA-MB-435 cells; details: MDA-MB-435 (breast cancer) cell line
[3] = tested on: MDA-MB-231 (breast cancer); test: Induction of cell (programmed) death in MDA-MB-231 cells; details: MDA-MB-231 (breast cancer) cell line
MCF-7 (breast cancer) = test: Induction of cell (programmed) death in MCF-7 cells; details: MCF-7 (breast cancer) cell line
HL-60 (leukemia) = test: Induction of cell (programmed) death in HL-60 cells; details: HL-60 (leukemia) cell line
A172 (malignant glioma) = test: Induction of cell (programmed) death in A172 cells; details: A172 (malignant glioma) cell line
[4] = tested on: NCIH1703 (non-small cell lung adenocarcinoma); test: Induction of cell (programmed) death in NCIH1703 cells; details: NCIH1703 (non-small cell lung adenocarcinoma) cell line
A357 (lung cancer) = test: Induction of cell (programmed) death in A357 cells; details: A357 (lung cancer) cell line
DU145 (prostate cancer) = test: Induction of cell (programmed) death in DU145 cells; details: DU145 (prostate cancer) cell line
MM1s (multiple myeloma) = test: Induction of cell (programmed) death in MM1s cells; details: MM1s (multiple myeloma) cell line
DF15 (multiple myeloma) = test: Induction of cell (programmed) death in DF15 cells; details: DF15 (multiple myeloma) cell line
H929 (multiple myeloma) = test: Induction of cell (programmed) death in H929 cells; details: H929 (multiple myeloma) cell line
U266 (multiple myeloma) = test: Induction of cell (programmed) death in U266 cells; details: U266 (multiple myeloma) cell line
ANB6 (multiple myeloma) = test: Induction of cell (programmed) death in ANB6 cells; details: ANB6 (multiple myeloma) cell line
[5] = tested on: MDA-435 human breast cancer cells; test: In vitro cell cycle assay (G1 arrest), propidium iodide DNA content by flow cytometry; details: MDA-435 cells synchronized by serum deprivation for 24 hours, released with 10% serum; vehicle 28%
Method: Tumor cells were synchronized by serum deprivation for 24 hours, then released by adding 10% serum to the cell culture with either the compound of EXAMPLE 1 ((4-{[3-(2,2-Dimethyl-tetrahydro-pyran-4-yl)-4-phenyl-butylamino]-methyl}-phenyl)-dimethyl-amine) (obtained from ChemBridge Corporation; single peak via HPLC: 20–100% gradient: acetonitrile/water/1% trifluoroacetic acid) or vehicle (dimethylsofloxide). Cells were harvested and stained in 0.04% digitonin working solution with […] propidium iodide. DNA content was analyzed by Flow Cytometry (Coulter). The population of cells in each phase was determined using Expo 32-ADC Software for Coulter EPICS® XL™ Cytometers, version 1.1 B (2001).

[6] = tested on: MDA-435 human breast cancer cells; test: In vitro apoptosis assay, Annexin V-FITC and PI staining by flow cytometry; details: MDA-435 cells
Method: MDA-435 human breast cancer cells were treated with either vehicle or varying doses of the compound of EXAMPLE 1. Cells were harvested and stained with Annexin V-FITC and PI by Flow Cytometry using ApoAlert Annexin V-FITC apoptosis kit (Clonetech, BD). The percentage of apoptotic cells were determined using EPICS® XL™ and XL-MCL, System II™ Software, version 1.0 (1996).

CN(C)c1ccc(CNCCC(Cc2ccccc2)C2CCOC(C)(C)C2)cc1 (centres unmarked) [EXAMPLE 1, (4-({[3-(2′,2′-dimethyltetrahydropyran-4′-yl)-4-phenylbutylamino]-methyl}-phenyl)-dimethylaminedihydrochloride]
increase in PI staining: PI staining of treated cells ([6]; PI stains cells in a late stage of apoptosis)
38%: G0/G1 to S phase transition blockage [5]
induce cell (programmed) death: induction of cell (programmed) death [1] | induction of cell (programmed) death [2] | induction of cell (programmed) death [3] | induction of cell (programmed) death (MCF-7 (breast cancer)) | induction of cell (programmed) death (HL-60 (leukemia)) | induction of cell (programmed) death (A172 (malignant glioma)) | induction of cell (programmed) death [4] | induction of cell (programmed) death (A357 (lung cancer)) | induction of cell (programmed) death (DU145 (prostate cancer)) | induction of cell (programmed) death (MM1s (multiple myeloma)) | induction of cell (programmed) death (DF15 (multiple myeloma)) | induction of cell (programmed) death (H929 (multiple myeloma)) | induction of cell (programmed) death (U266 (multiple myeloma)) | induction of cell (programmed) death (ANB6 (multiple myeloma))
up to 30%: cell population with increased intensity of Annexin V-FITC staining ([6]; varying doses, dose-dependent increase)
